Assay results taken from US11971412B2, “Polypeptide-antibody complexes and uses thereof” (Mayo Foundation for Medical Education and Research, priority 2017, dated 2024).
Ends that are not written are not given here.

Legend:
[1] = system: CD20+ Daudi lymphoma cells; test: Flow cytometry staining of CD20+ Daudi lymphoma cells; format: cell-based; details: CD20+ Daudi lymphoma cells incubated 30 minutes at 4° C., washed with FACS buffer
Procedure: FIG. 1 is a series of scatter plots from flow cytometry studies using a polypeptide having the sequence […] (SEQ ID NO:3) that was labeled with QDs that emit at a wavelength of 565 nm, and complexed with a therapeutic antibody (rituximab). […] CD20+ Daudi lymphoma cells were incubated with isotype control, FITC-rituximab, peptide-QD only, peptide-QD+rituximab (10:1), and peptide-QD+rituximab (25:1) for 30 minutes at 4° C. After washing with FAGS buffer (PBS+0.5% BSA and 0.5% Na azide), the stained cells were analyzed by flow cytometry for recognition of CD20. The Daudi cells were 95% CD20+ (top left), 11.62% positive when stained with peptide-QD only (bottom left), and 57.02% and 61.31% positive with peptide-QD-rituximab at 10:1 and 25:1 (bottom center and bottom right, respectively).
The fluorescently labeled peptide was then bound to rituximab, trastuzumab, or atezolizumab and tested for binding to tumor cells expressing the pertinent tumor target. […] CD20+ Daudi lymphoma cells were incubated with isotype control, FITC-rituximab, polypeptide-QD only, polypeptide-QD-rituximab (10:1) complex, and polypeptide-QD-rituximab (25:1) complex for 30 minutes at 4° C. After washing with FACS buffer (PBS+0.5% BSA and 0.5% Na azide), the stained cells were analyzed by flow cytometry. […]

[2] = system: SK-Br-3 (HER2/neu-positive) cells; test: Flow cytometry staining of HER2/neu-positive SK-Br-3 cells; format: cell-based
Procedure: FIG. 4 is a series of scatter plots from flow cytometry studies using SK-Br-3 (HER2/neu-positive) cells stained with a SEQ ID NO:3-QD-trastuzumab complex. The SK-Br-3 cells were incubated with isotype control antibody (top left), PE-anti-HER2 (top middle), SEQ ID NO:3-QD only (top right), and SEQ ID NO:3-QD-trastuzumab complex (bottom left). The cells were 84.7% positive for HER2/neu, 15.9% positive with SEQ ID NO:3-QD only and 68.9% positive with SEQ ID NO:3-QD-trastuzumab complex. A histogram representation of the data is included at the bottom right of the figure.
Additional experiments utilized HER2/neu-positive SK-Br-3 cells stained with polypeptide-QD bound to trastuzumab. The SK-Br-3 cells were incubated with isotype (FIG. 4, top left), PE-anti-HER2 (FIG. 4, top middle), polypeptide-QD only (FIG. 4, top right), and polypeptide-QD-trastuzumab complex (FIG. 4, bottom left). The cells were 84.7% positive for HER2/neu, 15.9% positive with polypeptide-QD only and 68.9% positive with the polypeptide-QD-trastuzumab complex. A histogram representation of the data is shown at the bottom right of […].

Substance | Daudi cells positive by flow cytometry [1] [%] | SK-Br-3 cells positive by flow cytometry [2] [%]
FITC-rituximab: FITC-labeled rituximab used as direct CD20 stain of Daudi cells [reference compound] | 95 | 
polypeptide-QD only: SEQ ID NO:3 polypeptide thiol-linked via SMCC crosslinker to PEG-coated Quantum Dots, without antibody (CGSGGGSVVLNQLCVLHEKTPVSDR; not fully specified (residue 1); also: Cys1 thiol linked via SMCC to PEG-coated quantum dot) | 11.62 | 15.9
